Source: patent publication US12528790B2, “Amide derivative having antiviral activity” (Shionogi & Co., Ltd., priority 2020, dated 2026)
pEC50: −log10 of the molar value. Where two headings read alike, the source gives them in different places.

Legend:
RSV A2 strain = assay: In vitro CPE (CytoPathic Effect) inhibition effect evaluation test, RSV type A; assay type: cell-based; details: human respiratory syncytial virus
Method in brief: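 EC50 is the concentration giving 50% inhibition of virus-induced cytopathic effect, fitted by nonlinear regression from CellTiter-Glo 2.0 viability. Compounds in 3-fold series were co-incubated at 37 °C with HEp-2 cells and RSV: A2 strain for 4 days, B (Wash/18537) for 5 days; uninfected wells served as control.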

[1] = test system: RSV B (Wash/18537 strain); assay: In vitro CPE (CytoPathic Effect) inhibition effect evaluation test, RSV type B; assay type: cell-based; details: human respiratory syncytial virus
Experimental: The test sample is diluted in advance to an appropriate concentration with DMSO, and 3-fold series of serial dilutions were prepared on a 384-well plate (0.32 μL/well). HEp-2 cells (CCL-23; ATCC) adjusted at appropriate number (2.4×10^5 cells/mL) in 2% FBS E-MEM (prepared by adding kanamycin and FBS to Eagle's Minimum Essential Medium; Invitrogen) were added at 12.5 μL/well to the 384-well plate previously aliquoted with the test samples. The RSV A2 strain was diluted to an appropriate concentration in a culture medium and added to the 384-well plate containing the test sample at 12.5 μL/well. The culture medium was added additionally to the 384-well plate, and the test was started with 50 μL/well. Control wells were prepared with only virus-free culture medium. The plate was incubated in a 5% CO2 incubator at 37° C. for 4 days, and the plate was then placed at room temperature for 30 minutes. CellTiter-Glo (registered trademark) 2.0 assay (Promega) was added at 15 μL/well, mixed for 30 seconds, and the plate was placed for approximately 1 hour. The luminescent signal was then measured by EnVision (PerkinElmer). The inhibitory effect of the test agents on RSV-induced CPE was calculated as 0% and 100% inhibition rate for each sample concentration based on the level of remaining viable cells by CellTiter-Glo (registered trademark) 2.0, with the EC50 value for each compound calculated by nonlinear regression as the concentration that inhibits RSV-induced CPE by 50%. In the case of evaluation against RSV type B, RSV B (Wash/18537 strain) was infected in the same manner as the type A, cultured for 5 days, and quantitated in the same manner as for the A2 strain.

[2] = inhibitory effect against RSV type A (RSV A2 strain), HEp-2 cells, CPE inhibition, read-out: EC50
[3] = inhibitory effect against RSV type B, CPE inhibition, read-out: EC50
[4] = HEp-2, 96 h, read-out: EC50, inhibitory effect against RSV type A (CPE inhibition)
[5] = HEp-2, 120 h, HEp-2 cells, RSV B (Wash/18537 strain), 5 days, CellTiter-Glo, read-out: EC50, inhibitory effect against RSV type B (CPE inhibition)

| SMILES | pEC50 (RSV A2 strain; [2]) | pEC50 [1, 3] | pEC50 (RSV A2 strain; [4]) | pEC50 [1, 5] |
| --- | --- | --- | --- | --- |
| CN(C)CCCc1nc(N2CC3(CCOCC3)c3cc(OC4CCN(c5ncccn5)CC4)ccc32)nc(C(F)(F)F)c1C(=O)NC1(C(=O)O)C2CC3CC(C2)CC1C3 (centres unmarked) [Compound I-183] | > 8.00 | 7.00 to 8.00 |  |  |
| O=C(NC1(C(=O)O)C2CC3CC(C2)CC1C3)c1cnc(N2CC3(CCOCC3)c3cc(OC4CCN(C5COC5)CC4)ccc32)nc1C(F)(F)F (centres unmarked) [Compound I-184] | > 8.00 | > 8.00 |  |  |
| O=C(NC1(C(=O)O)C2CC3CC(C2)CC1C3)c1cnc(N2CC3(CCOCC3)c3cc(O[C@H]4CC[C@H](n5cccn5)CC4)ccc32)nc1C(F)(F)F (some centres unmarked) [Compound I-193] | > 8.00 | > 8.00 |  |  |
| O=C(NC1(C(=O)O)C2CC3CC(C2)CC1C3)c1cnc(N2CC3(CCOCC3)c3cc(OC4CCS(=O)(=O)CC4)ccc32)nc1C(F)(F)F (centres unmarked) [Compound I-203] | > 8.00 | > 8.00 |  |  |
| CN1CCN(CCOc2ccc3c(c2)C2(CCOCC2)CN3c2ncc(C(=O)NC3(C(=O)O)C4CC5CC(C4)CC3C5)c(C(F)(F)F)n2)CC1 (centres unmarked) [Compound I-204] | > 8.00 | 7.00 to 8.00 |  |  |
| O=C(NC1(C(=O)O)C2CC3CC(C2)CC1C3)c1cnc(N2CC3(CCCCC3)c3cc(OC4CCN(c5ncccn5)CC4)ccc32)nc1C(F)(F)F (centres unmarked) [Compound I-214] | > 8.00 | > 8.00 |  |  |
| N#C[C@]12CC3C[C@H](C1)[C@](NC(=O)c1cnc(N4CC5(CCOCC5)c5cc(OC6CCN(c7ncccn7)CC6)ccc54)nc1C(F)(F)F)(C(=O)O)[C@@H](C3)C2 [Compound I-218] | > 8.00 | > 8.00 |  |  |
| O=C(NC1(C(=O)O)C2CC3CC(C2)CC1C3)c1ccc(-c2cn(C3CCC(F)(F)CC3)c3cc(OC4CCN(c5ncccn5)CC4)c(F)cc23)nc1C(F)(F)F (centres unmarked) [Compound I-221] | > 8.00 | 5.30 to 7.00 |  |  |
| O=C(NC1(C(=O)O)C2CC3CC(C2)CC1C3)c1ccc(-c2cn(C3CCC(F)(F)CC3)c3c(F)c(OC4CCN(c5ncccn5)CC4)ccc23)nc1C(F)(F)F (centres unmarked) [Compound I-227] | > 8.00 | > 8.00 |  |  |
| O=C(NC1(C(=O)O)C2CC3CC(C2)CC1C3)c1cnc(-c2cn(C3CCC(F)(F)CC3)c3nc(OC4CCN(c5ncccn5)CC4)ccc23)nc1C(F)(F)F (centres unmarked) [Compound I-228] |  |  | 8.89 | 7.44 |
| O=C(NC1(C(=O)O)C2CC3CC(C2)CC1C3)c1cnc(-c2cn(C3CCC(F)(F)CC3)c3cc(OC4CCN(C5COC5)CC4)ccc23)nc1C(F)(F)F (centres unmarked) [Compound I-234] | > 8.00 | 7.00 to 8.00 |  |  |
| O=C(NC1(C(=O)O)C2CC3CC(C2)CC1C3)c1cnc(-c2cn(C3CCC(F)(F)CC3)c3cc(OC4CCN(c5ncc(F)cn5)CC4)ccc23)nc1C(F)(F)F (centres unmarked) [Compound I-237] | > 8.00 | > 8.00 |  |  |
| O=C(NC1(C(=O)O)C2CC3CC(C2)CC1C3)c1cnc(-c2cn(C3CCC(F)(F)CC3)c3cc(OC4CCN(c5ncccn5)CC4)ccc23)nc1C(F)(F)F (centres unmarked) [Compound I-239] | > 8.00 | > 8.00 |  |  |
| Cc1nc(-c2cn(C3CCOCC3)c3cc(OC4CCN(c5ncccn5)CC4)ccc23)nc(C(F)(F)F)c1C(=O)NC1(C(=O)O)C2CC3CC(C2)CC1C3 (centres unmarked) [Compound I-245] | > 8.00 | > 8.00 |  |  |
| O=C(NC1(C(=O)O)C2CC3CC(C2)CC1C3)c1cnc(-c2cn(C3CCC(F)(F)CC3)c3cc(OC4CCN(C5CC(F)(F)C5)CC4)ccc23)nc1C(F)(F)F (centres unmarked) [Compound I-249] | > 8.00 | 7.00 to 8.00 |  |  |
| COC1CC(n2cc(-c3ccc(C(=O)NC4(C(=O)O)C5CC6CC(C5)CC4C6)c(C(F)(F)F)n3)c3ccc(OC4CCN(c5ncccn5)CC4)cc32)C1 (centres unmarked) [Compound I-250] | > 8.00 | > 8.00 |  |  |
| O=C(NC1(C(=O)O)C2CC3CC(C2)CC1C3)c1cnc(-c2cn(C3CCC(F)(F)CC3)c3cc(OC4CCC5(CC4)COC5)ccc23)nc1C(F)(F)F (centres unmarked) [Compound I-256] | > 8.00 | > 8.00 |  |  |
| O=C(NC1(C(=O)O)C2CC3CC(C2)CC1C3)c1cnc(-c2cn(C3CCC(F)(F)CC3)c3cc(OC4CCN(c5ncccn5)CC4)ncc23)nc1C(F)(F)F (centres unmarked) [Compound I-268] |  |  | 8.85 | 8.37 |
| O=C(NC1(C(=O)O)C2CC3CC(C2)CC1C3)c1ccc(-c2cn(S(=O)(=O)C3CC3)c3cc(OC4CCN(c5ncccn5)CC4)ccc23)nc1C(F)(F)F (centres unmarked) [Compound I-272] | > 8.00 | 7.00 to 8.00 |  |  |
